Laboratory results taken from US9169241B2, “Quinolinyloxyphenylsulfonamides” (Max-Planck-Gesellschaft Zur Forderung der Wissenschaften …, priority 2009, dated 2015).
Read-outs that look alike come from different tables or passages of the source.

Legend:
[1] = tested on: C8161; assay: Apoptosis assay (Cellomics, nucleus condensation); assay type: cell-based; settings: Homo sapiens, Table III, read-out: Apoptosis induction in C8161
Description: (§1) The Cellomics BioApplication (Thermo Fischer Cellomics Products, Pittsburgh, Pa.) is an automated image analysis algorithm that provides detailed analysis of phenotypes related to apoptosis. As one of the most prominent characteristics of apoptotics cell a nucleus condensation takes place. This can be measured fluorescence signal intensity using a CCD camera on fully automated microscope system. The Cellomics system is able to quantify the fluorescence intensity per single nucleus and calculates the variation of signal intensity in each cell population. […] Additionally the number of detected cell decreases normally in apoptotic cell populations. In detail 5000 cell per 96 well were labeled with DNA intercalating dye (Hoechst 33342, Sigma, Steinheim, Germany) to visualize the nucleus in a fluorescence microscope under live conditions. The apoptosis assay was performed 24 h and 48 h after addition of compound at concentrations 12.5 μM, 6.25 μM, 3.125 μM, 1.56 μM, 0.78 μM, 0.39 μM as well as DMSO control for 48 h.

[2] = tested on: Hs578T; assay: Apoptosis assay (Cellomics, nucleus condensation); assay type: cell-based; settings: Homo sapiens, Hs-578T, Table III, read-out: Apoptosis induction in Hs578T
Description: as §1

[3] = tested on: SF126; assay: Apoptosis assay (Cellomics, nucleus condensation); assay type: cell-based; settings: Homo sapiens, SF-126, Table III, read-out: Apoptosis induction in SF126
Description: as §1

[4] = tested on: SF763; assay: Apoptosis assay (Cellomics, nucleus condensation); assay type: cell-based; settings: Table III, read-out: Apoptosis induction in SF763
Description: as §1

[5] = tested on: U118; assay: Apoptosis assay (Cellomics, nucleus condensation); assay type: cell-based; settings: Table III, read-out: Apoptosis induction in U118
Description: as §1

[6] = tested on: U138; assay: Apoptosis assay (Cellomics, nucleus condensation); assay type: cell-based; settings: Table III, read-out: Apoptosis induction in U138
Description: as §1

[7] = tested on: indicated cell line; assay: Wound healing migration assay (Table IV); assay type: cell-based; settings: compounds at 12.5, 6.25, 3.125 μM, 48 h-72 h
Protocol: This method mimics cell migration during wound healing in vivo. The basic steps involve creating a “wound” in a cell monolayer, capturing the images at the beginning and at regular intervals during cell migration to close the wound, and comparing the images to quantify the migration rate of the cells. In detail, 150000 cell/24 well have been seeded and allowed to form a monolayer overnight. Subsequently a “wound” or “scratch” has been performed with a 1000 μl pipette tip. The STDV of wound size is normally below 10% at time point t0. The assay was stopped by fixation with 0.05% Crystal violet/20% methanol when control scratches were closed. The assay was terminated between 48 h and 72 h depending on the migration potential of the indicated cell line. The “wounds” were visualized with a Zeiss Axiovert S100 microscope (Carl Zeiss UK, Welwyn Garden City, UK). The tested compounds were used at 12.5 μM, 6.25, 3.125 μM and DMSO control. IC50 values have been calculated as 50% wound size in between t0 and t48 or t72.

[8] = tested on: Hs578T; assay: Matrigel outgrowth assay/branching assay; assay type: cell-based; settings: Homo sapiens, Hs-578T; HS578T cell line; Table Ib; read-out: Total branching inhibition in Matrigel HS578T
Method in brief: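 Matrigel 3 mg/ml, polymerized 1 h 37° C; 5000 cells/well + cmpd 3.125/1.56/0.78 μM or DMSO. Imaged 48/72/96 h, 5× objective. Positive = total branching block.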

[9] = tested on: tumor cell; assay: Matrigel outgrowth assay/branching assay (Table Va); assay type: cell-based
Protocol: The Matrigel outgrowth assay is based on the ability of tumor cell to penetrate a solid gel of extracellular matrix proteins mimicking the metastasis formation in vivo. While cells with low invasive potential appear as roundish cell or cell cluster, cells with high invasive potential penetrate the Matrigel and form polymorphic structures. In detail 65 μl of Matrigel matrix (Matrigel™ Matrix, BD Biosciences, Bedford, Mass., USA) with a concentration of 3 mg/ml have been polymerized in 96 well plates for 1 h at 37° C. Subsequently 5000 cell/well were seeded into each well containing cell culture medium and indicated compound with concentrations of 3.125 μM, 1.56 μM and 0.78 μM as well as DMSO control. After 48 h, 72 h and 96 h images of cell were taken on an inverted microscope using a 5× objective (Zeiss Axiovert S100 microscope Carl Zeiss UK, Welwyn Garden City, UK). Only compound concentrations were total branching inhibition was evident were accounted as positive. Method was used as previously described, with some modifications (Thompson E W, et al. Association of increased basement membrane invasiveness with absence of estrogen receptor and expression of vimentin in human breast cancer cell lines. J Cell Physiol 1992; 150:534-44).

[10] = tested on: cells; assay: Boyden chamber migration assay (Table VI); assay type: cell-based; settings: Homo sapiens, Hs-578T, 16 h, Hs578T cells; 16 h migration
Protocol: The Boyden chamber assay is based on a chamber of two medium-filled compartments separated by a microporous membrane of 8 μM (Cell culture insert 8.0 μM pore size, BD Biosciences, Bedford, Mass.). The boyden chamber migration assays were carried out according to the supplier's instructions. In general, 20000 cells are placed in the upper compartment with medium containing 0% FCS plus 0.1% BSA and are allowed to migrate 16 h through the pores of the membrane into the lower compartment, which is filled with cell culture medium containing 10% FCS as chemotactic agents. The cells remaining in the insert were removed with a cotton swab, and the cells on the bottom of the filter were fixed and counted. (Zhang Y X, et al. AXL is a potential target for therapeutic intervention in breast cancer progression. Cancer Res. 2008; 68:1905-15).

[11] = tested on: viable cells in culture; assay: Cell viability assay at 10 μM (CellTiter-Glo, Table VII); assay type: cell-based; settings: compound 10 μM, 72 h;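 also: graded A 0-20%; B 21-40%; C 41-60%; D over 60% viable cells relative to DMSO control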
Method in brief: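 Cells were seeded at 1000 cells/well in 96-well plates in 100 μl culture medium and incubated for 72 h with 10 μM compound or a DMSO control. ATP content, which reflects metabolically active and therefore viable cells, was then determined by CellTiter-Glo luminescence (Promega) per the manufacturer's instructions and expressed relative to the DMSO control.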

[12] = Homo sapiens, C8161 cells, read-out: IC50 Wound healing Assay C8161
[13] = SF763 cells, read-out: IC50 Wound healing Assay SF763
[14] = Homo sapiens, C8161 cells, read-out: Total branching inhibition in Matrigel C8161
[15] = Homo sapiens, Hs-578T, Hs578T cells, read-out: Total branching inhibition in Matrigel Hs578T
[16] = U118 cells, read-out: Total branching inhibition in Matrigel U118
[17] = U138 cells, read-out: Total branching inhibition in Matrigel U138
[18] = Homo sapiens, HCT-116, HCT116 def, read-out: percentage (%) of viable cells HCT 116def
[19] = Homo sapiens, HCT-116, HCT116 wt, read-out: percentage (%) of viable cells HCT 116wt
[20] = Homo sapiens, HT-29, HT29, read-out: percentage (%) of viable cells HT29
[21] = Homo sapiens, NCI-H358, H358, read-out: percentage (%) of viable cells H358
[22] = Homo sapiens, NCI-H1650, H1650, read-out: percentage (%) of viable cells H1650
[23] = Homo sapiens, NCI-H1666, H1666, read-out: percentage (%) of viable cells H1666
[24] = Homo sapiens, NCI-H1975, H1975, read-out: percentage (%) of viable cells H1975
[25] = Homo sapiens, NCI-H1993, H1993, read-out: percentage (%) of viable cells H1993
[26] = Homo sapiens, A549, read-out: percentage (%) of viable cells A549
[27] = Homo sapiens, HCC827, read-out: percentage (%) of viable cells HCC827
[28] = Homo sapiens, SW480, read-out: percentage (%) of viable cells SW480
[29] = RKO, read-out: percentage (%) of viable cells RKO

SMILES | IC50 [1] [µM] | IC50 [2] [µM] | IC50 [3] [µM] | IC50 [4] [µM] | IC50 [5] [µM] | IC50 [6] [µM] | IC50 [7, 12] [µM] | IC50 [7, 13] [µM] | IC50 [8] [µM] | IC50 [9, 14] [µM] | IC50 [9, 15] [µM] | IC50 [9, 16] [µM] | IC50 [9, 17] [µM] | IC50 [10] [µM] | melting point [°C] | viability at 10 µM [11, 18] [%] | viability at 10 µM [11, 19] [%] | viability at 10 µM [11, 20] [%] | viability at 10 µM [11, 21] [%] | viability at 10 µM [11, 22] [%] | other results
COc1cc2c(Oc3ccc(NS(=O)(=O)c4ccc(F)c(F)c4F)cc3F)ccnc2cc1OCCCN1CCN(C)CC1 [Example 17, 2,3,4-Trifluoro-N-(3-fluoro-4-{6-methoxy-7-[3-(4-methyl-piperazin-1-yl)-propoxy]-quinolin-4-yloxy}-phenyl)-benzenesulfonamide] | ≤ 12.5 | ≤ 12.5 | ≤ 12.5 | ≤ 12.5 | 12.5 to 50 | ≤ 12.5 | ≤ 12.5 | 12.5 to 50 | ≤ 10 | ≤ 5 | ≤ 5 | ≤ 5 | 5 to 50 | ≤ 5 | 88 to 90 |  |  |  |  |  | 
COc1cc(S(=O)(=O)Nc2ccc(Oc3ccnc4cc(OCCCN5CCN(C)CC5)c(OC)cc34)c(F)c2)ccc1F [Example 18, 4-Fluoro-N-(3-fluoro-4-{6-methoxy-7-[3-(4-methyl-piperazin-1-yl)-propoxy]-quinolin-4-yloxy}-phenyl)-3-methoxy-benzenesulfonamide] | ≤ 12.5 | ≤ 12.5 | ≤ 12.5 | ≤ 12.5 | ≤ 12.5 | ≤ 12.5 | ≤ 12.5 | 12.5 to 50 | ≤ 10 | ≤ 5 | ≤ 5 | ≤ 5 | ≤ 5 | ≤ 5 | 167 to 169 | 0 to 20 | 0 to 20 | 0 to 20 | 0 to 20 | 21 to 40 | viability at 10 µM [11, 23]: 21 to 40%; viability at 10 µM [11, 24]: 0 to 20%; viability at 10 µM [11, 25]: 0 to 20%; viability at 10 µM [11, 26]: 21 to 40%; viability at 10 µM [11, 27]: 21 to 40%; viability at 10 µM [11, 28]: 0 to 20%; viability at 10 µM [11, 29]: 0 to 20%
COc1cc2c(Oc3ccc(NS(=O)(=O)c4ccccc4F)cc3F)ccnc2cc1OCCCN1CCN(C)CC1 [Example 26, 2-Fluoro-N-(3-fluoro-4-{6-methoxy-7-[3-(4-methyl-piperazin-1-yl)-propoxy]-quinolin-4-yloxy}-phenyl)-benzenesulfonamide] | ≤ 12.5 | ≤ 12.5 | 12.5 to 50 | ≤ 12.5 | 12.5 to 50 | ≤ 12.5 | 12.5 to 50 | ≤ 12.5 | ≤ 10 | ≤ 5 | ≤ 5 | ≤ 5 | 5 to 50 | ≤ 5 | 185 to 186 |  |  |  |  |  | 
COc1cc2nccc(Oc3ccc(NS(=O)(=O)c4ccccc4C(F)(F)F)cc3F)c2cc1OCCCN1CCN(C)CC1 [Example 86, N-(3-Fluoro-4-{7-methoxy-6-[3-(4-methyl-piperazin-1-yl)-propoxy]-quinolin-4-yloxy}-phenyl)-2-trifluoromethyl-benzenesulfonamide] | ≤ 12.5 | ≤ 12.5 | ≤ 12.5 | ≤ 12.5 | ≤ 12.5 | ≤ 12.5 | 12.5 to 50 | 12.5 to 50 | ≤ 10 | ≤ 5 | ≤ 5 | ≤ 5 | 5 to 50 | ≤ 5 |  | 21 to 40 | 21 to 40 | 0 to 20 | 0 to 20 | 21 to 40 | viability at 10 µM [11, 23]: 41 to 60%; viability at 10 µM [11, 24]: 21 to 40%; viability at 10 µM [11, 25]: 0 to 20%; viability at 10 µM [11, 26]: > 60%; viability at 10 µM [11, 27]: 41 to 60%; viability at 10 µM [11, 28]: 21 to 40%; viability at 10 µM [11, 29]: 21 to 40%
